In patent publication US20210255193A1, “LYSINE REACTIVE PROBES AND USES THEREOF” (The Scripps Research Institute, priority 2017, published 2021):

What was measured:
[1] = target: T1, FECH Ferrochelatase, mitochondrial (Homo sapiens, UniProt P22830); assay: competitive isoTOP-ABPP; type: binding; conditions: 50 uM, 231 sol, in vitro; for R value (DMSO/fragment) for probe 1 labeling: P22830_K304
T1 construct: isoTOP-ABPP experiments performed in cell lysates (in vitro); endogenous in cells; host or cells: soluble proteome of human cancer cell lines (MDA-MB-231; Ramos and Jurkat also prepared)
T1 sequence (P22830 55-423): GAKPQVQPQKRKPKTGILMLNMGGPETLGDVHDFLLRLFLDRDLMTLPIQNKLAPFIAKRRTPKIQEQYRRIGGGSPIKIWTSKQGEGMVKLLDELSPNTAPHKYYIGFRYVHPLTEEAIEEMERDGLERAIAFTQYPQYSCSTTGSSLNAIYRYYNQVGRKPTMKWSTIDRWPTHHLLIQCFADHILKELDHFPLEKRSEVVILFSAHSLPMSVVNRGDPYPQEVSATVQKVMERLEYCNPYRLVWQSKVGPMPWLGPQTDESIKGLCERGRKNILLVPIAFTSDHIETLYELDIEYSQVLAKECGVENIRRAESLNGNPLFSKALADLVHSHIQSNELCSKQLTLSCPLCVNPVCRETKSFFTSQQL
Experimental: (§1) In vitro covalent fragment treatment for isoTOP-ABPP. All compounds were made up as solutions in DMSO (100×) and were used at a final concentration of 50 μM for activated esters and 100 μM for guanidinylating agents. For each profiling sample, 0.5 ml of lysate was treated with 5 μl of the 100× compound stock solution or 5 μl of DMSO. Samples were treated with activated esters for
(§2) STP-alkyne labeling and click chemistry. For concentration-dependent reactivity measurements by isoTOP-ABPP, 0.5 ml proteome aliquots were treated at ambient temperature with 1 mM STP-alkyne 1 (5 μl of 100 mM stock in DMSO) and 0.1 mM STP alkyne 1 (5 μl of 10 mM stock in DMSO), respectively. For competitive isoTOP-ABPP, after in vitro fragment treatment (detailed above), the samples were labeled for 1 h at ambient temperature with 0.1 mM STP-alkyne 1 (5 μl of 10 mM stock in DMSO). Samples were conjugated by copper-mediated azide-alkyne cycloaddition (CuAAC) to either the light (1 mM STP-alkyne or fragment treated) or heavy (0.1 mM STP-alkyne or DMSO treated) TEV tags (10 μl of 5 mM stocks in DMSO, final concentration=100 μM) using tris(2-carboxyethyl)phosphine hydrochloride
(§3) R value calculation and processing. The ratios of light and heavy MS1 peaks for each unique peptide were quantified with a CIMAGE software using default parameters (3 MS1 acquisitions per peak and signal to noise threshold set to 2.5). For reactivity measurements by isoTOP-ABPP, the R value was calculated from the ratio of MS1 peak areas, comparing the 1 mM STP alkyne sample (light TEV tag) with the 0.1 mM STP alkyne sample (heavy TEV tag). For competitive isoTOP-ABPP, the R value was calculated from the ratio of MS1 peak areas, comparing the DMSO treated sample (heavy TEV tag) with the compound treated sample (light TEV tag). […] Ratios for unique peptide entries are calculated for each experiment; overlapping peptides with the same modified lysine (for example, different charge states, MudPIT chromatographic steps or tryptic termini) are grouped together and the median ratio is reported as the final ratio (R). The peptide ratios reported by CIMAGE were further filtered to ensure the removal or correction of low-quality ratios in each individual data set. The quality filters applied were the following: removal of half tryptic peptides; for ratios with high standard deviations from the median (90% of the median or above) the lowest ratio was taken instead of the median; removal of peptides with R=20 and only a single MS2 event triggered during the elution of the parent ion; manual annotation of all the peptides with ratios of 20, removing any peptides with low quality elution profiles that remained after the previous curation steps (only done for competitive isoTOP-ABPP).
(§4) Cross-data processing for fragment screening. For compound treated samples, biological replicates of the same condition were averaged, if the standard deviation was below 60% of the mean; otherwise, for lysines with at least one R value <4 for a particular compound, the lowest value of the ratio set was taken. For lysines, where all R values for a particular compound were ≥4, the average was reported. For peptides containing several possible modified lysines, the lysine with the highest number of quantification events was used for analysis and the remaining, redundant peptides were reported as alternative modification sites. Peptides included in the aggregate dataset (those used for further bioinformatics and statistical analyses) were required to have been quantified in 2 experiments for competitive isoTOP-ABPP. Lysines were categorized as liganded, if they had at least one ratio R≥4 (hit fragments). For liganded lysines with R=20 for all liganding events, lysines were required to have been quantified with R=20 in two separate experiments and were further required to have been quantified with R<20 in one additional experiment.

[2] = target: T2, PFKP 6-phosphofructokinase type C (Homo sapiens, UniProt Q01813); assay: competitive isoTOP-ABPP; type: binding; parameters: key to isoTOP-ABPP reactivity ratio at lysine Q01813_K688: R = MS1 peak area ratio, DMSO (heavy) / compound-treated (light); conditions: for R value (DMSO/fragment) for probe 1 labeling: Q01813_K688; for R value (DMSO/fragment) for probe 1 labeling / isoTOP-ABPP reactivity ratio at lysine Q01813_K688 / isoTOP-ABPP ratio (R) at liganded lysine Q01813_K688: 50 uM, in vitro; for R value (DMSO/fragment) for probe 1 labeling / isoTOP-ABPP reactivity ratio at lysine Q01813_K688: 231 sol; for isoTOP-ABPP ratio (R) at liganded lysine Q01813_K688: sol, 231
T2 construct: isoTOP-ABPP experiments performed in cell lysates (in vitro); endogenous in cells
T2 sequence (Q01813 1-784): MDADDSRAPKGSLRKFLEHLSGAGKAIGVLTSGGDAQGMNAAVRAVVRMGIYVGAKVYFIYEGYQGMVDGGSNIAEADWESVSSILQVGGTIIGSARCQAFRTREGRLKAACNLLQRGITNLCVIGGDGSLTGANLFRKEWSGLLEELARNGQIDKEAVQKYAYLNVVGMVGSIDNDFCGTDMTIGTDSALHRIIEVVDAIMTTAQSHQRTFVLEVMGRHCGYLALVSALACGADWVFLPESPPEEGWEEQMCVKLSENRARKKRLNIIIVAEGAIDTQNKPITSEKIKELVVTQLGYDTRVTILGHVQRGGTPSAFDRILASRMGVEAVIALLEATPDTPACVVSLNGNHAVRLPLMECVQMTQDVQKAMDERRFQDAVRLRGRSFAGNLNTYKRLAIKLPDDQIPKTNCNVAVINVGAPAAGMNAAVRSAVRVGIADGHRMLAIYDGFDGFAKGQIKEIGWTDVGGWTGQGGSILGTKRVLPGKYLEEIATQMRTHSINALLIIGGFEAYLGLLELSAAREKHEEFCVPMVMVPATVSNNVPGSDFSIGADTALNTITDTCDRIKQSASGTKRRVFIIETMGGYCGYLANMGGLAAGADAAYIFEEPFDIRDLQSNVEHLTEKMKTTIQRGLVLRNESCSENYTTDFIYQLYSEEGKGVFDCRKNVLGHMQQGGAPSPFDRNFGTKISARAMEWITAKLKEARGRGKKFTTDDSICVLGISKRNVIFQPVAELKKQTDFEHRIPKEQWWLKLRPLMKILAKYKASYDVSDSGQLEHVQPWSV
Experimental: as §1, §2, §3, §4

Row | Compound | isoTOP-ABPP reactivity ratio at lysine P22830_K304 [1] | isoTOP-ABPP reactivity ratio at lysine Q01813_K688 [2] | other results
1 | O=C(CCc1cn(-c2ccccc2)nc1-c1ccccc1)Oc1c(F)c(F)c(F)c(F)c1F [fragment 19, Pentafluorophenyl 3-(1,3-diphenyl-1H-pyrazol-4-yl)propanoate] |  |  | R value (DMSO/fragment) for probe 1 labeling [1]: 1.8; R value (DMSO/fragment) for probe 1 labeling [2]: 1.5
2 | O=C(Oc1c(F)c(F)c(F)c(F)c1F)C(c1ccccc1)c1ccccc1 [fragment 20, Pentafluorophenyl 2,2-diphenylacetate] |  |  | R value (DMSO/fragment) for probe 1 labeling [1]: 1.7; blockade of probe 1 labeling of K688 ([2]; PFKP K688): completely blocked; R value (DMSO/fragment) for probe 1 labeling [2]: 20.0
3 | O=C(Oc1c(F)c(F)c(F)c(F)c1F)c1cc(C(F)(F)F)cc(C(F)(F)F)c1 [fragment 21, Pentafluorophenyl 3,5-bis(trifluoromethyl)benzoate] |  |  | R value (DMSO/fragment) for probe 1 labeling [1]: 1.0; R value (DMSO/fragment) for probe 1 labeling [2]: 1.1
4 | Cn1cc(CC(=O)Oc2c(F)c(F)c(F)c(F)c2F)c2ccccc21 [fragment 22, Pentafluorophenyl 2-(1-methyl-1H-indol-3-yl)acetate] |  |  | R value (DMSO/fragment) for probe 1 labeling [1]: 2.0; R value (DMSO/fragment) for probe 1 labeling [2]: 2.0
5 | COc1cc(CCC(=O)Oc2c(F)c(F)c(F)c(F)c2F)cc(OC)c1OC [fragment 23, Pentafluorophenyl 3-(3,4,5-trimethoxyphenyl)propanoate] |  |  | R value (DMSO/fragment) for probe 1 labeling [2]: 2.1
6 | O=C(Oc1c(F)c(F)c(F)c(F)c1F)C1CCN(C(=O)OCc2ccccc2)CC1 [fragment 24, 1-Benzyl 4-(pentafluorophenyl) piperidine-1,4-dicarboxylate] | 1.5 | 2.5 | 
7 | O=C(Oc1c(F)c(F)c(F)c(F)c1F)c1ccc2ccccc2n1 [fragment 25, Pentafluorophenyl quinoline-2-carboxylate] | 1.0 | 15.6 | 
8 | O=C(CCc1coc2cc(F)ccc2c1=O)Oc1c(F)c(F)c(F)c(F)c1F [fragment 26, Pentafluorophenyl 3-(7-fluoro-4-oxo-4H-chromen-3-yl)propanoate] | 1.7 | 6.4 | 
9 | O=C(CN1C(=O)c2ccccc2C1=O)Oc1c(F)c(F)c(F)c(F)c1F [fragment 27, Pentafluorophenyl 2-(1,3-dioxoisoindolin-2-yl)acetate] | 1.5 | 20.0 | 
10 | CCn1cc(C(=O)Oc2c(F)c(F)c(F)c(F)c2F)c(=O)c2ccc(C)nc21 [fragment 28, Pentafluorophenyl 1-ethyl-7-methyl-4-oxo-1,4-dihydro-1,8-naphthyridine-3-carboxylate] | 1.5 | 1.3 | 
11 | O=C(CCc1cn(-c2ccccc2)nc1-c1ccccc1)Oc1ccc([N+](=O)[O-])cc1[N+](=O)[O-] [fragment 29, 2,4-Dinitrophenyl 3-(1,3-diphenyl-1H-pyrazol-4-yl)propanoate] | 5.4 | 12.8 | 
12 | O=C(Oc1ccc([N+](=O)[O-])cc1[N+](=O)[O-])C(c1ccccc1)c1ccccc1 [fragment 30, 2,4-Dinitrophenyl 2,2-diphenylacetate] |  | 20.0 | 
13 | O=C(Oc1ccc([N+](=O)[O-])cc1[N+](=O)[O-])c1cc(C(F)(F)F)cc(C(F)(F)F)c1 [fragment 31, 2,4-Dinitrophenyl 3,5-bis(trifluoromethyl)benzoate] | 3.2 | 2.3 | 
14 | Cn1cc(CC(=O)Oc2ccc([N+](=O)[O-])cc2[N+](=O)[O-])c2ccccc21 [fragment 32, 2,4-Dinitrophenyl 2-(1-methyl-1H-indol-3-yl)acetate] |  | 12.6 | 
15 | O=C(Oc1ccc([N+](=O)[O-])cc1[N+](=O)[O-])C1CCN(C(=O)OCc2ccccc2)CC1 [fragment 34, 1-Benzyl 4-(2,4-dinitrophenyl) piperidine-1,4-dicarboxylate] |  |  | isoTOP-ABPP ratio (R) at liganded lysine Q01813_K688 [2]: 1.9
16 | O=C(Oc1ccc([N+](=O)[O-])cc1[N+](=O)[O-])c1ccc2ccccc2n1 [fragment 35, 2,4-Dinitrophenyl quinoline-2-carboxylate] |  |  | isoTOP-ABPP ratio (R) at liganded lysine Q01813_K688 [2]: 3.3
17 | O=C(Oc1ccc([N+](=O)[O-])cc1[N+](=O)[O-])c1ccc(-c2ccccc2)cc1 [fragment 37, 2,4-Dinitrophenyl [1,1′-biphenyl]-4-carboxylate] |  |  | isoTOP-ABPP ratio (R) at liganded lysine Q01813_K688 [2]: 1.0
18 | O=C(Oc1ccc([N+](=O)[O-])cc1[N+](=O)[O-])c1ccccc1Nc1cccc(C(F)(F)F)c1 [fragment 40, 2,4-Dinitrophenyl 2-((3-(trifluoromethyl)phenyl)amino)benzoate] |  |  | isoTOP-ABPP ratio (R) at liganded lysine Q01813_K688 [2]: 1.0
19 | CC(C)(C)OC(=O)NCCCC(=O)Oc1ccc([N+](=O)[O-])cc1[N+](=O)[O-] [fragment 41, 2,4-Dinitrophenyl 4-((tert-butoxycarbonyl)amino)butanoate] |  |  | isoTOP-ABPP ratio (R) at liganded lysine Q01813_K688 [2]: 4.9
